From patent publication US20250129103A1, “METHODS FOR TREATMENT OF CANCER” (Frontier Medicines Corporation, priority 2022, published 2025)
Converted amounts (≈) assume the structure as drawn.

Legend:
[1] = target: KRAS G12C (GMPPNP-loaded) and cRAF (Ras-binding domain) interaction (Homo sapiens (Human), UniProt P01116, C118S/C51S/C80L/G12C); test: Inhibition of KRAS G12C and cRAF binding (AlphaScreen); conditions: KRAS G12C loaded with GMPPNP, cRaf RBD, 2 hours preincubation; read-out: Raf-1 RBD K-Ras IC50
Method in brief: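 AlphaScreen readout (680 nm excitation, 570 nm emission) of RBD binding after a 60-90 min bead step at room temperature. This step follows 2 h compound exposure of GMPPNP-preloaded KRAS G12C in Hepes pH 7.4 buffer with MgCl2 and 10 μM GMPPNP.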

[2] = target: KRAS G12C (GMPPNP-loaded) and PI3Ka (Ras-binding domain) interaction (Homo sapiens (Human), UniProt P01116, C118S/C51S/C80L/G12C); test: Inhibition of KRAS G12C and PI3Ka binding (AlphaScreen); conditions: KRAS G12C loaded with GMPPNP, PI3Ka RBD, 2 hours preincubation; read-out: PI3K RBD K-Ras IC50
Method in brief: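 Biotin-AviTag Cys-light KRAS G12C (aa 1-169, C51S/C80L/C118S), GMPPNP-loaded, 1.5 nM, preincubated 2 h with compound, then His-tagged PI3Ka RBD (aa 157-300, 100 nM) plus AlphaScreen beads added for 60-90 min, RT. Buffer Hepes pH 7.4, 10 μM GMPPNP, 2% DMSO; 10-point 1:3 from 50 μM; 4-parameter IC50.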

[3] = Determination of logD (1-octanol / phosphate buffer pH 7.4); assay type: physicochemical; conditions: 1-octanol/phosphate buffer, pH 7.4, pH 7.4, 1-octanol/phosphate buffer; read-out: Log D, pH 7.4
Method in brief: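 Each phase analysed by LCMS after 1 h shaking at 800 rpm and centrifugation, room temperature. Phases were mutually saturated 1-octanol and 100 mM phosphate buffer at pH 7.4. LogD derived from the phase concentrations.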

[4] = Determination of kinetic solubility (pH 7.4); assay type: physicochemical; conditions: phosphate buffer, pH 7.4, aqueous buffer, kinetic from dmso stock, 50 mM phosphate buffer pH 7.4, read-out: Ksol, pH 7.4
Method in brief: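 Solubility taken from filtrate peak areas on a calibration curve (HPLC-UV, LC-MS/MS). Before filtration and centrifugation, compound was shaken for 2 h at room temperature in pH 7.4 50 mM phosphate buffer.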

KRAS G12C (GMPPNP-loaded) and cRAF (Ras-binding domain) interaction, sequence (P01116 other isoform, or with tags, fused parts or gaps G12C/C51S/C80L/C118S): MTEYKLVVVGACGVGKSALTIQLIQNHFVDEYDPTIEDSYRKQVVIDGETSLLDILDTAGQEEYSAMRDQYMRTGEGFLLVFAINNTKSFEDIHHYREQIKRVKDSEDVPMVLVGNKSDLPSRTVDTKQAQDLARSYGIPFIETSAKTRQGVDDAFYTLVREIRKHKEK
KRAS G12C (GMPPNP-loaded) and PI3Ka (Ras-binding domain) interaction, sequence (P01116 other isoform, or with tags, fused parts or gaps G12C/C51S/C80L/C118S): as above

Structure (SMILES): Cc1nccc(/C=C/C(=O)N2CCN(c3nc(OC[C@@]45CCCN4C[C@H](F)C5)nc4c(F)c(-c5cccc6cccc(Cl)c56)ncc34)C[C@@H]2CC#N)n1 [Compound 140]
- IC50 [1]: < 10 nM
- IC50 [2]: < 10 nM
- logD [3]: 3.45
- solubility kinetic at 2 h [4]: 1.86 µg/mL (≈ 2.53 µM)

Structure (SMILES): N#CC[C@H]1CN(c2nc(OC[C@@]34CCCN3C[C@H](F)C4)nc3c(F)c(-c4cccc5ccc(F)c(Cl)c45)ncc23)CCN1C(=O)/C=C/CN1C[C@H]2C[C@@H]1CO2 [Example 72, 2-((S)-1-((E)-4-((1R,4R)-2-oxa-5-azabicyclo[2.2.1]heptan-5-yl)but-2-enoyl)-4-(7-(8-chloro-7-fluoronaphthalen-1-yl)-8-fluoro-2-(((2R,7aS)-2-fluorotetrahydro-1H-pyrrolizin-7a(5H)-yl)methoxy)pyrido[4,3-d]pyrimidin-4-yl)piperazin-2-yl)acetonitrile]
- IC50 [1]: < 10 nM
- IC50 [2]: < 10 nM
- logD [3]: 3.12
- solubility kinetic at 2 h [4]: 143 µg/mL (≈ 185 µM)

Structure (SMILES): N#CC[C@H]1CN(c2nc(OC[C@@]34CCCN3C[C@H](F)C4)nc3c2CCN(c2cccc4ccc(F)c(Cl)c24)C3)CCN1C(=O)/C=C/c1nc(C2COC2)no1 [Example 8, 2-((S)-4-(7-(8-chloro-7-fluoronaphthalen-1-yl)-2-(((2R,7aS)-2-fluorohexahydro-1H-pyrrolizin-7a-yl)methoxy)-5,6,7,8-tetrahydropyrido[3,4-d]pyrimidin-4-yl)-1-((E)-3-(3-(oxetan-3-yl)-1,2,4-oxadiazol-5-yl)acryloyl)piperazin-2-yl)acetonitrile]
- IC50 [1]: < 10 nM
- IC50 [2]: < 10 nM
- logD [3]: 3.78
- solubility kinetic at 2 h [4]: 0.01 µg/mL (≈ 0.0129 µM)

Structure (SMILES): N#CC[C@H]1CN(c2nc(OC[C@@]34CCCN3C[C@H](F)C4)nc3c(F)c(-c4cccc5ccc(F)c(Cl)c45)ncc23)CCN1C(=O)/C=C/CN1C[C@@H]2C[C@H]1CO2 [Example 71, 2-((S)-1-((E)-4-((1S,4S)-2-oxa-5-azabicyclo[2.2.1]heptan-5-yl)but-2-enoyl)-4-(7-(8-chloro-7-fluoronaphthalen-1-yl)-8-fluoro-2-(((2R,7aS)-2-fluorotetrahydro-1H-pyrrolizin-7a(5H)-yl)methoxy)pyrido[4,3-d]pyrimidin-4-yl)piperazin-2-yl)acetonitrile]
- IC50 [1]: < 10 nM
- IC50 [2]: < 10 nM
- logD [3]: 2.9
- solubility kinetic at 2 h [4]: 88.9 µg/mL (≈ 115 µM)

Structure (SMILES): N#CC[C@H]1CN(c2nc(OC[C@@]34CCCN3C[C@H](F)C4)nc3c(F)c(-c4cccc5cccc(Cl)c45)ncc23)CCN1C(=O)/C=C/CN1CC2CC(C1)O2 [Example 86, 2-((2S)-1-((E)-4-(6-oxa-3-azabicyclo[3.1.1]heptan-3-yl)but-2-enoyl)-4-(7-(8-chloronaphthalen-1-yl)-8-fluoro-2-(((2R,7aS)-2-fluorohexahydro-1H-pyrrolizin-7a-yl)methoxy)pyrido[4,3-d]pyrimidin-4-yl)piperazin-2-yl)acetonitrile]
- IC50 [1]: < 10 nM
- IC50 [2]: < 10 nM
- logD [3]: 2.9
- solubility kinetic at 2 h [4]: 96.6 µg/mL (≈ 128 µM)

Structure (SMILES): CC(C)c1nccc(/C=C/C(=O)N2CCN(c3nc(OC[C@@]45CCCN4C[C@H](F)C5)nc4c(F)c(-c5cccc6cccc(Cl)c56)ncc34)C[C@@H]2CC#N)n1 [Compound 151]
- IC50 [1]: < 10 nM
- IC50 [2]: < 10 nM
- logD [3]: 3.71
- solubility kinetic at 2 h [4]: 0.41 µg/mL (≈ 0.536 µM)

Structure (SMILES): N#CC[C@H]1CN(c2nc(OC[C@@]34CCCN3C[C@H](F)C4)nc3c(F)c(-c4cccc5ccc(F)c(Cl)c45)ncc23)CCN1C(=O)/C=C/CN1CCC(F)(F)CC1 [Example 82, 2-((S)-4-(7-(8-chloro-7-fluoronaphthalen-1-yl)-8-fluoro-2-(((2R,7aS)-2-fluorotetrahydro-1H-pyrrolizin-7a(5H)-yl)methoxy)pyrido[4,3-d]pyrimidin-4-yl)-1-((E)-4-(4,4-difluoropiperidin-1-yl)but-2-enoyl)piperazin-2-yl)acetonitrile]
- IC50 [1]: < 10 nM
- IC50 [2]: < 10 nM
- logD [3]: 4.2
- solubility kinetic at 2 h [4]: 3.46 µg/mL (≈ 4.35 µM)

Structure (SMILES): Cc1cc(/C=C/C(=O)N2CCN(c3nc(OC[C@@]45CCCN4C[C@H](F)C5)nc4c(F)c(-c5cccc6ccc(F)c(Cl)c56)ncc34)C[C@@H]2CC#N)nc(C)n1 [Example 89, 2-((S)-4-(7-(8-chloro-7-fluoronaphthalen-1-yl)-8-fluoro-2-(((2R,7aS)-2-fluorotetrahydro-1H-pyrrolizin-7a(5H)-yl)methoxy)pyrido[4,3-d]pyrimidin-4-yl)-1-((E)-3-(2,6-dimethylpyrimidin-4-yl)acryloyl)piperazin-2-yl)acetonitrile]
- IC50 [1]: < 10 nM
- IC50 [2]: < 10 nM
- logD [3]: 3.99
- solubility kinetic at 2 h [4]: 0.03 µg/mL (≈ 0.0391 µM)

Structure (SMILES): CC(C)(C)c1noc(/C=C/C(=O)N2CCN(c3nc(OCC45CCCN4CCC5)nc4c3CCN(c3cccc5cccc(Cl)c35)C4)C[C@@H]2CC#N)n1 [Compound 30]
- IC50 [1]: 10 to 100 nM
- IC50 [2]: 10 to 100 nM
- logD [3]: 3.09
- solubility kinetic at 2 h [4]: 2.33 µg/mL (≈ 3.16 µM)

Structure (SMILES): CO[C@H]1CCN(C/C=C/C(=O)N2CCN(c3nc(OC[C@@]45CCCN4C[C@H](F)C5)nc4c(F)c(-c5cccc6ccc(F)c(Cl)c56)ncc34)C[C@@H]2CC#N)C1 [Example 80, 2-((S)-4-(7-(8-chloro-7-fluoronaphthalen-1-yl)-8-fluoro-2-(((2R,7aS)-2-fluorotetrahydro-1H-pyrrolizin-7a(5H)-yl)methoxy)pyrido[4,3-d]pyrimidin-4-yl)-1-((E)-4-((S)-3-methoxypyrrolidin-1-yl)but-2-enoyl)piperazin-2-yl)acetonitrile]
- IC50 [1]: < 10 nM
- IC50 [2]: < 10 nM
- logD [3]: 3.2
- solubility kinetic at 2 h [4]: 146 µg/mL (≈ 189 µM)

Structure (SMILES): C[C@@H]1CN(C/C=C/C(=O)N2CCN(c3nc(OC[C@@]45CCCN4C[C@H](F)C5)nc4c(F)c(-c5cccc6cccc(Cl)c56)ncc34)C[C@@H]2CC#N)C[C@H](C)O1 [Compound 186]
- IC50 [1]: 10 to 100 nM
- IC50 [2]: 10 to 100 nM
- logD [3]: 3.54
- solubility kinetic at 2 h [4]: 89 µg/mL (≈ 115 µM)

Structure (SMILES): C#Cc1c(F)ccc2cccc(-c3ncc4c(N5CCN(C(=O)/C=C/c6ccnc(C)n6)[C@@H](CC#N)C5)nc(OC[C@@]56CCCN5C[C@H](F)C6)nc4c3F)c12 [Compound 103, 2-((S)-4-(7-(8-ethynyl-7-fluoronaphthalen-1-yl)-8-fluoro-2-(((2R,7aS)-2-fluorotetrahydro-1H-pyrrolizin-7a(5H)-yl)methoxy)pyrido[4,3-d]pyrimidin-4-yl)-1-((E)-3-(2-methylpyrimidin-4-yl)acryloyl)piperazin-2-yl)acetonitrile]
- IC50 [1]: < 10 nM
- IC50 [2]: < 10 nM
- logD [3]: 3.29
- solubility kinetic at 2 h [4]: 10 µg/mL (≈ 13.5 µM)

Structure (SMILES): CO[C@@H]1CCN(C/C=C/C(=O)N2CCN(c3nc(OC[C@@]45CCCN4C[C@H](F)C5)nc4c(F)c(-c5cccc6cccc(Cl)c56)ncc34)C[C@@H]2CC#N)C1 [Compound 191]
- IC50 [1]: < 10 nM
- IC50 [2]: < 10 nM
- logD [3]: 3.18
- solubility kinetic at 2 h [4]: 94.9 µg/mL (≈ 125 µM)

Structure (SMILES): N#CC[C@H]1CN(c2nc(OCC34CCCN3CCC4)nc3c2CCN(c2cccc4cccc(Cl)c24)C3)CCN1C(=O)/C=C/c1nc(C2CC2)no1 [Compound 23]
- IC50 [1]: 10 to 100 nM
- IC50 [2]: 10 to 100 nM
- logD [3]: 3.38
- solubility kinetic at 2 h [4]: 12.5 µg/mL (≈ 17.3 µM)

Structure (SMILES): CCO[C@@H]1CCN(C/C=C/C(=O)N2CCN(c3nc(OC[C@@]45CCCN4C[C@H](F)C5)nc4c(F)c(-c5cccc6cccc(Cl)c56)ncc34)C[C@@H]2CC#N)C1 [Compound 92, 2-((S)-4-(7-(8-chloronaphthalen-1-yl)-8-fluoro-2-(((2R,7aS)-2-fluorohexahydro-1H-pyrrolizin-7a-yl)methoxy)pyrido[4,3-d]pyrimidin-4-yl)-1-((E)-4-((R)-3-ethoxypyrrolidin-1-yl)but-2-enoyl)piperazin-2-yl)acetonitrile]
- IC50 [1]: < 10 nM
- IC50 [2]: < 10 nM
- logD [3]: 3.35
- solubility kinetic at 2 h [4]: 104 µg/mL (≈ 135 µM)

Structure (SMILES): CCc1noc(/C=C/C(=O)N2CCN(c3nc(OCC45CCCN4CCC5)nc4c(F)c(-c5cccc6cccc(Cl)c56)ncc34)C[C@@H]2CC#N)n1 [Compound 26]
- IC50 [1]: 100 to 500 nM
- IC50 [2]: 100 to 500 nM
- logD [3]: 2.66
- solubility kinetic at 2 h [4]: 80.2 µg/mL (≈ 111 µM)

Structure (SMILES): N#CC[C@H]1CN(c2nc(OC[C@@]34CCCN3C[C@H](F)C4)nc3c(F)c(-c4cccc5ccc(F)c(F)c45)ncc23)CCN1C(=O)/C=C/CN1C2COCC1C2 [Compound 224]
- IC50 [1]: < 10 nM
- IC50 [2]: < 10 nM
- logD [3]: 2.96
- solubility kinetic at 2 h [4]: 84.6 µg/mL (≈ 112 µM)

Structure (SMILES): N#CC[C@H]1CN(c2nc(OC[C@@]34CCCN3C[C@H](F)C4)nc3c2CCN(c2cccc4cccc(Cl)c24)C3)CCN1C(=O)/C=C/CN1CCOCC1 [Compound 49]
- IC50 [1]: < 10 nM
- IC50 [2]: < 10 nM
- logD [3]: 3.72
- solubility kinetic at 2 h [4]: 45.2 µg/mL (≈ 62 µM)

Structure (SMILES): Cc1nccc(/C=C/C(=O)N2CCN(c3nc(OC[C@@]45CCCN4C[C@H](F)C5)nc4c(F)c(-c5cccc6ccccc56)ncc34)C[C@@H]2CC#N)n1 [Compound 215]
- IC50 [1]: < 10 nM
- IC50 [2]: < 10 nM
- logD [3]: 2.16
- solubility kinetic at 2 h [4]: 16.5 µg/mL (≈ 23.6 µM)
